Data from ChEMBL document CHEMBL5257126, “Moderately lipophilic 2-(Het)aryl-6-dithioacetals, 2-phenyl-1,4-benzodioxane-6-dithioacetals and 2-phenylbenzofuran-5-dithioacetals: Synthesis and primary evaluation as potential antidiabetic AMPK-activators” (Bioorg Med Chem, 2023).

What was measured:
Format in all cases: functional
[1] = system: L6; test: Induction of glucose uptake in rat L6 cells assessed as fold increase by measuring 2-NBDG uptake at 2.5 uM preincubated in high glucose medium for 48 hrs followed by compound addition and measured after 24 hrs
[2] = system: L6; test: Induction of glucose uptake in rat L6 cells assessed as fold increase by measuring 2-NBDG uptake at 25 uM preincubated in high glucose medium for 48 hrs followed by compound addition and measured after 24 hrs
[3] = system: L6; test: Induction of glucose uptake in rat L6 cells assessed as fold increase by measuring 2-NBDG uptake at 0.25 uM preincubated in high glucose medium for 48 hrs followed by compound addition and measured after 24 hrs

| SMILES | fold change (FC) [1] | fold change (FC) [2] | fold change (FC) [3] |
| --- | --- | --- | --- |
| c1ccc(-c2cc3cc(C4SCCCS4)ccc3o2)cc1 | 1 | 1.2 | 1 |
| OCCSC(SCCO)c1ccc2c(c1)OCC(c1ccccc1)O2 (stereo not drawn) | 1.2 | 1.7 | 1.1 |
| O[C@H]1CS[C@@H](c2ccc3c(c2)CCC(c2ccccc2)O3)SC1 (stereo partly drawn) | 1 | 1 | 1.1 |
| OCCOCCSC(SCCOCCO)c1ccc2c(c1)CCC(c1ccccc1)O2 (stereo not drawn) | 1.1 | 1.1 | 1 |
| c1coc(C2CCc3cc(C4SCCCS4)ccc3O2)c1 (stereo not drawn) | 1 | 1.2 | 1 |
| OCCSC(SCCO)c1ccc2c(c1)CCC(c1ccco1)O2 (stereo not drawn) | 1 | 1.5 | 1.1 |
| O=C(O)CCSC(SCCC(=O)O)c1ccc2c(c1)CCC(c1ccccc1)O2 (stereo not drawn) | 1.1 | 1.2 | 0.9 |
| OCCSC(SCCO)c1ccc2c(c1)CCC(c1cccnc1)O2 (stereo not drawn) | 1.7 | 1.9 | 1.4 |
| c1ccc(C2COc3cc(C4SCCCS4)ccc3O2)cc1 (stereo not drawn) | 1 | 1.2 | 1 |
| c1ccc(C2CCc3cc(C4NCCS4)ccc3O2)cc1 (stereo not drawn) | 0.9 | 1.2 | 1 |
| COc1ccc(C2CCc3cc(C4SCCCCS4)ccc3O2)cc1 (stereo not drawn) | 1.9 | 2.2 | 1.4 |
